Calls of active or inactive are those of the source.
What was measured:
[1] = molecular target: T1, Cytochrome P450 1A2 (Homo sapiens, UniProt P05177);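 note: PubChem cytochrome P450 panel assay, CYP1A2 panel member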
T1 sequence (P05177 whole entry): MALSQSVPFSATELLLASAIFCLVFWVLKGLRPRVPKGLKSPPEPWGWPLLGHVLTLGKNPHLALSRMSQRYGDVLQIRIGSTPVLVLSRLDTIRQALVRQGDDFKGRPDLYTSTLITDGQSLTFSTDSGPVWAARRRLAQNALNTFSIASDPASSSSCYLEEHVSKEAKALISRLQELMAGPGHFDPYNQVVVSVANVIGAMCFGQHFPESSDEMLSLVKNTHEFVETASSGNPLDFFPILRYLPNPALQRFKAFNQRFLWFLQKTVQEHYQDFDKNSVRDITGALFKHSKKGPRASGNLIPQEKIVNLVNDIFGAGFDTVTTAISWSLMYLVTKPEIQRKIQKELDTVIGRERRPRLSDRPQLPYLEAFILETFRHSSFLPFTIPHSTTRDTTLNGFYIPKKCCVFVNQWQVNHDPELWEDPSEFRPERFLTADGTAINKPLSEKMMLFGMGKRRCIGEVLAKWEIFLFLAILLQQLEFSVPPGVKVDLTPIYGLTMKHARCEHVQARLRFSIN

[2] = molecular target: Cytochrome P450 2D6 (Homo sapiens, UniProt P10635)
[3] = molecular target: FAD-linked sulfhydryl oxidase ALR (Homo sapiens, UniProt P55789); experiment: inhibitors of human ALR sulfhydryl oxidase, dose response, biochemical, H2O2 detection, luminescence, cherry-pick (AID 493248)
[4] = molecular target: T2, Heat shock factor protein 1 (Mus musculus, UniProt P38532); experiment: HSF1 potentiators in luciferase reporter cells, confirmation, cell-based, NIH3T3, luminescence, dose retest (AID 435004); format: functional;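 note: stress induced by proteasome inhibitor MG132 added 30 min after compound; luciferase reporter driven by HSF1 response element in NIH3T3 cells; actives raise luminescence as potentiators of the MG132 stress response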
T2 sequence (P38532 whole entry): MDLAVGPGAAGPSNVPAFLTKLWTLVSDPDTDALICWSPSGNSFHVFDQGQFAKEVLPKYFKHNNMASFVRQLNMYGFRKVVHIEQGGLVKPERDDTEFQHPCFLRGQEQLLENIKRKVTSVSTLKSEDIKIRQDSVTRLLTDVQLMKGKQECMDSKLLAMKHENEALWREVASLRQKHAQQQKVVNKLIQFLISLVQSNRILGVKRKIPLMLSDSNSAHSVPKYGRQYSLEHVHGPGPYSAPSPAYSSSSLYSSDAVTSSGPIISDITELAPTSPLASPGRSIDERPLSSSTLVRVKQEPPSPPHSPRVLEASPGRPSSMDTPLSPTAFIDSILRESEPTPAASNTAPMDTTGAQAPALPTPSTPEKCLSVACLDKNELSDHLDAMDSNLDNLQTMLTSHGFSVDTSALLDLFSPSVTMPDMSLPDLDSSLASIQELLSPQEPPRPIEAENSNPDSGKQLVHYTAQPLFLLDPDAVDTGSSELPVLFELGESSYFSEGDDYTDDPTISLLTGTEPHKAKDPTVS

[5] = cells; format: functional
[6] = molecular target: Cytochrome P450 2C19 (Homo sapiens, UniProt P33261); experiment: Cytochrome panel assay with activity outcomes. Panel member name: p450-cyp2c19 Compounds with AC50 equal or less than 10 uM are considered active; format: functional; conditions: read-out: AC50
[7] = Luminescence Cell-Based Dose Retest to Confirm Inhibitors of Cancer Stem Cells. [Related pubchem assays (depositor defined):AID2717, AID2721]; format: functional; conditions: Homo sapiens
[8] = molecular target: T3, Streptokinase A (Streptococcus pyogenes serotype M1, UniProt P10520); experiment: S. pyogenes streptokinase expression inhibitors, potency, dose response, plasminogen activation absorbance, OD405 (AID 1914); format: functional, Streptococcus pyogenes M1 GAS;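 note: secreted streptokinase activity via plasminogen activation per viability signal from cell pellet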
T3 sequence (P10520 whole entry): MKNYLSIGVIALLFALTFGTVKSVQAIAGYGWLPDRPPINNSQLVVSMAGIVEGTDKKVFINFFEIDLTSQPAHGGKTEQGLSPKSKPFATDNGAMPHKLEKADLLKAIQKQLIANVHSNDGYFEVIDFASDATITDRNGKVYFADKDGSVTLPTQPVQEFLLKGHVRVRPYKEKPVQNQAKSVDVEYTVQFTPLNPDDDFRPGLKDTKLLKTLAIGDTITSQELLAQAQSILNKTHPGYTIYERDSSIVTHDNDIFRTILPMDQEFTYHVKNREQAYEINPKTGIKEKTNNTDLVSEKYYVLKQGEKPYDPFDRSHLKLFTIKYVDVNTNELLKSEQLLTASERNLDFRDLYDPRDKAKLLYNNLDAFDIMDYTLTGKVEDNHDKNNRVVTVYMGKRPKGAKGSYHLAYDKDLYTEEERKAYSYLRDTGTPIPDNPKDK

[9] = system: Streptococcus sp. 'group A'; experiment: growth inhibition of control SK(-) GAS strain, dose response, counter-screen for streptokinase expression inhibitor project, luminescence, kanamycin, BacTiterGlo, confirmation (AID 1900); format: functional, organism-based
[10] = system: Streptococcus; experiment: Group A Streptococcus viability loss, dose response, counter-screen for streptokinase expression inhibitor project, luminescence, BacTiterGlo (AID 1915); format: functional, organism-based;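 note: potency for reduction of bacterial viability or growth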
[11] = inhibitors of intracellular T. cruzi replication, confirmation, NIH3T3 host cells, beta-gal luminescence (AID 2044); format: functional, cell-based;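 note: intracellular parasites grown in NIH/3T3 mouse fibroblasts as host cells; luminescent beta-galactosidase reporter signal from transgenic T. cruzi replicating inside host cells; inhibitors lower the luminescence signal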
[12] = cytotoxicity toward NIH3T3 fibroblasts, dose response, counter-screen, cell-based, ATP luminescence, mouse fibroblasts (AID 2010); format: functional;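 note: cells exposed to compound for about 90 hours before reading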
[13] = inhibitors of SNCA 5'UTR-driven reporter translation, confirmation, H4 neuroglioma cells, luminescence (AID 1988); format: functional, cell-based
[14] = Luminescence Cell-Based Dose Response HTS to Identify Inhibitors of 5'UTR Stem-Loop Driven Prion Protein mRNA Translation in H4 Neuroglioblastoma Cells. [Related pubchem assays: 1827 (Project Summary), 1813 (Primary HTS)]; format: functional
[15] = inhibitors of firefly luciferase expression or activity, dose response, H4 neuroglioma cells, luminescence (AID 1990); format: functional, cell-based

Chain of Cytochrome P450 2D6 (P10635 whole entry): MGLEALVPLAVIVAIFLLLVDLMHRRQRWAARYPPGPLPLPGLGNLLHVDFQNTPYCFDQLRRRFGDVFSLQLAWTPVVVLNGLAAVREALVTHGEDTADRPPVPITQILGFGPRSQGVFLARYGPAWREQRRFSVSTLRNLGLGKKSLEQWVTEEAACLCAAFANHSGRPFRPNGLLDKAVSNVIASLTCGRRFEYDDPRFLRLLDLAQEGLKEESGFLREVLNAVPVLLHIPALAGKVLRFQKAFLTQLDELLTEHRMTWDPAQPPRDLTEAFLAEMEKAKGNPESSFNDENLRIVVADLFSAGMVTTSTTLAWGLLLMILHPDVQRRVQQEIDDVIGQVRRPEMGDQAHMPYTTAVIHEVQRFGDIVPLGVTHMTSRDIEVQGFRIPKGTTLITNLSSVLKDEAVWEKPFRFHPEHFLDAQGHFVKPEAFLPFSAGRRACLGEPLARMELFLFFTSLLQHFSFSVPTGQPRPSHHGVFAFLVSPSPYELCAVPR
Chain of FAD-linked sulfhydryl oxidase ALR (P55789 whole entry): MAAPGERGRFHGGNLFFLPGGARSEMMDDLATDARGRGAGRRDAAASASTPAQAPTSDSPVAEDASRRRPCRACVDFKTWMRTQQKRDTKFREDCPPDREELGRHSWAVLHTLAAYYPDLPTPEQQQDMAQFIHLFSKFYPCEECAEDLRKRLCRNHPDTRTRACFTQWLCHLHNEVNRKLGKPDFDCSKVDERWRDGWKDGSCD
Chain of Cytochrome P450 2C19 (P33261 whole entry): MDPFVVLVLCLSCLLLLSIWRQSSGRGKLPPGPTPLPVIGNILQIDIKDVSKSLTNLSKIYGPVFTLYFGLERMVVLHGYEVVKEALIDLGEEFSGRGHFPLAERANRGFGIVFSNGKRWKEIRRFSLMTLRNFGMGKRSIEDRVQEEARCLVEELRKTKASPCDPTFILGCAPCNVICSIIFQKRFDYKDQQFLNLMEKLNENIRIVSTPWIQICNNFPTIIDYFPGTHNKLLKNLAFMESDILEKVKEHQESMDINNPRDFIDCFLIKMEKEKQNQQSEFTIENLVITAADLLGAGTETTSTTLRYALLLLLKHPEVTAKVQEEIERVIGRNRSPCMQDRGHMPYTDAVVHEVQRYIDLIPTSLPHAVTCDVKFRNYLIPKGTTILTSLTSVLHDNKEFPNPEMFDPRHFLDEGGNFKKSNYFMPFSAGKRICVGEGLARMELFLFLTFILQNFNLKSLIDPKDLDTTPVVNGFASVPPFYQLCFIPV

## C[C@@H](CC(=O)O)[C@@H](N)C(=O)O
[1]
  AC50: 31.6 µM (inconclusive)

## O=C(Nc1cccc(NC(=O)c2ccccc2[N+](=O)[O-])n1)c1ccccc1[N+](=O)[O-]
[2]
  AC50: 20 µM (inconclusive)

## Nc1n[nH]c(N2CCN(c3cccc(Cl)c3)CC2)n1
[3]
  AC50: 1.25 µM (active)

## CC1CCCCN1C(=O)COc1ccccc1F (stereo not given)
[4]
  EC50: > 260 µM (inactive)

## CCOC(=O)COc1ccc2c3c(c(=O)oc2c1C)CCC3
[5]
  IC50: > 50 µM (active)

## O=C(c1csnn1)N1CCC2(CC1)CN(c1ccccc1)C2
[6]
  AC50: 39.8 µM (inconclusive)
[2]
  AC50: 15.8 µM (inconclusive)

## CCOC(=O)Nc1ccc(C(=O)NCC2CCCO2)cc1 (stereo not given)
[1]
  AC50: 39.8 µM (inconclusive)

## CCOCCOC(=O)COc1ccc2c(-c3ccccc3)cc(=O)oc2c1
[5]
  IC50: 1.77 µM (active)

## Fc1cccc(-n2c(-c3cccs3)nc3nc4ccccc4nc32)c1
[7]
  AC50: 1.69 µM (active)

## CCOC(=O)CCNC(=O)c1ccc2nc(C3CCCCC3)oc2c1
[5]
  IC50: 23.8 µM (active)

## Cc1ccccc1-c1nc(N2CCNCC2)c2ccccc2n1
[2]
  AC50: 20 µM (inconclusive)

## CN(C)c1ncc2nc(-c3ccc(F)cc3)c(=O)n(C[C@H]3CCCO3)c2n1
[2]
  AC50: 1.26 µM (inconclusive)

## C=CCn1c(Cc2c[nH]c3ccccc23)nnc1SCC(=O)NCc1ccccc1
[1]
  AC50: 12.6 µM (inconclusive)

## N#Cc1ccsc1NC(=O)CN1CCN(c2ccccc2O)CC1
[3]
  AC50: 1.46 µM (active)

## CC(C)(C)OC(=O)[C@H](Cc1ccccc1)NC(=O)c1[nH]cnc1C(=O)Nc1cccc(Cl)c1
[8]
  EC50: 38.3 µM (active)
[9]
  EC50: 3.64 µM (active)
[10]
  EC50: 21.7 µM (active)
[7]
  AC50: 3.36 µM (active)

## COc1cccc(Cn2c(=O)c(CCc3ccccc3)nc3cnc(N4CCN(C)CC4)nc32)c1
[2]
  AC50: 20 µM (inconclusive)

## Nc1nnc(SCC(=O)Nc2cccc3ccccc23)s1
[4]
  EC50: > 260 µM (inactive)

## CN=C(S)N(Cc1ccc(Cl)cc1)Cc1cccs1
[4]
  EC50: > 260 µM (inactive)

## CCOC(=O)c1ccc(Nc2nc(-c3cccnc3)nc3ccccc23)cc1
[2]
  AC50: 10 µM (inconclusive)

## Cc1cc(C)c(S(=O)(=O)Nc2cccc(/C=C/C(=O)O)c2)c(C)c1
[4]
  EC50: > 260 µM (inactive)

## C(=C/c1ccccc1)/CN1CCN(CCOC(c2ccccc2)c2ccccc2)CC1
[1]
  AC50: 20 µM (inconclusive)

## Cc1ccc(Nc2c(-c3ccccc3O)nc3cnccn23)cc1
[3]
  AC50: 0.705 µM (active)

## COc1cccc(/C=C2\N=C(SC)SC2=O)c1OC
[4]
  EC50: 241 µM (active)

## COc1c(OC(C)=O)ccc(/C=C/c2ccc3cccc(OCc4ccccc4)c3n2)c1[N+](=O)[O-]
[7]
  AC50: 1.67 µM (active)

## Cc1nn(C(C)C(=O)Nc2ccc(Cl)cn2)c(C)c1[N+](=O)[O-] (stereo not given)
[1]
  AC50: 12.6 µM (inconclusive)

## CCOC(=O)C1CCN(c2ncnc3c2c(-c2ccccc2)cn3-c2ccccc2)CC1
[11]
  EC50: 2.23 µM (active)
[12]
  EC50: > 60 µM (not active)
[7]
  AC50: 3.11 µM (active)

## Cc1c(C)c(C)c(C(=O)c2ccc(NC(=O)c3ccccc3C(=O)O)cc2)c(C)c1C
[3]
  AC50: 5.32 µM (active)

## CC(=O)c1ccc(-c2ccc([C@H]3[C@@H]4C=CCC[C@@]4(C)C(=O)N3Cc3ccccc3)c(F)c2)cc1
[7]
  AC50: 4.4 µM (active)

## O=C(OCc1ccc([N+](=O)[O-])cc1)c1cc2ccccc2oc1=O
[5]
  IC50: 23.2 µM (active)

## CN(C)C(=O)c1ccc(-c2nccc(N(C)Cc3ccco3)n2)cc1
[6]
  AC50: 25.1 µM (inconclusive)
[2]
  AC50: 25.1 µM (inconclusive)

## Cc1ccccc1CSc1nnc(-c2cccs2)n1Cc1ccco1
[2]
  AC50: 1.12 µM (inconclusive)

## CCOC(=O)c1c(NC(NC(=O)C(C)C)C(Cl)(Cl)Cl)sc2c1CCC2 (stereo not given)
[7]
  AC50: 3.39 µM (active)

## Cc1ccc(NNC(=O)c2ccno2)c(C)c1
[4]
  EC50: > 260 µM (inactive)
[3]
  AC50: 3.48 µM (active)

## CC1CCCCN1c1ccc(N)cc1C(N)=O (stereo not given)
[3]
  AC50: 11.1 µM (active)

## C=CC[C@@H]1C=C[C@H](O/N=C(\C)CCN2CCCc3nc(C)c(C)cc32)[C@H](CO)O1
[2]
  AC50: 3.16 µM (inconclusive)

## COC(CNC(=O)C1CCCN(S(=O)(=O)c2c(C)noc2/C=C/c2cccs2)C1)OC (stereo not given)
[4]
  EC50: 110 µM (active)

## COc1ccc(C(=O)Nc2cccc(/C=C/c3nc(O)c4ccccc4n3)c2)cc1
[7]
  AC50: 3.7 µM (active)

## Cc1cc(C)nc(NNC(=O)c2ccccc2O)n1
[3]
  AC50: 5.66 µM (active)

## N#C/C(=C\c1ccc(Cl)cc1)c1nc2ccccc2o1
[4]
  EC50: > 260 µM (inactive)

## Cc1csc(NC(=O)c2cc([N+](=O)[O-])cc([N+](=O)[O-])c2)n1
[5]
  IC50: 13.2 µM (active)

## c1ccc(C(c2ccccc2)N2CCN(c3ccc4ccccc4n3)CC2)cc1
[13]
  EC50: > 120 µM (not active)
[14]
  EC50: > 120 µM (not active)
[15]
  EC50: 16.8 µM (active)

## N#Cc1ccc(CN2CC[C@@]3(CCCN(C(=O)Oc4ccccc4)C3)C2)cc1
[1]
  AC50: 12.6 µM (inconclusive)

## CC(=O)N1CCN=C1SCc1cccc(C(F)(F)F)c1
[3]
  AC50: 7.34 µM (active)

## COc1ccc(OCc2nnnn2-c2ccccc2)cc1
[4]
  EC50: > 260 µM (inactive)

## NC1=NC(=O)/C(=C/c2cn(Cc3ccccc3)c3ccccc23)S1
[4]
  EC50: > 260 µM (inactive)

## Cc1ccc(Sc2ccc(S(=O)(=O)Nc3ccc(C(=O)O)cc3)cc2)cc1C
[3]
  AC50: 20.7 µM (active)

## CCOC(=O)Cn1cc(C#N)c2cccc(CC)c21
[5]
  IC50: 4.78 µM (active)

## COc1ccc(N(CC(=O)Nc2cc(C)ccc2C)S(=O)(=O)c2c(C)noc2C)cc1
[7]
  AC50: 34.5 µM (active)

## O=C(Nc1ccc(Nc2ccccc2)cc1)c1ccccc1
[7]
  AC50: 13.7 µM (active)

## O=C(c1cc2ccccc2o1)N1CCN=C1SCc1cccnc1
[3]
  AC50: 0.095 µM (active)

## O=C(CC1S/C(=N\CCc2ccccc2)N(/N=C/c2cccs2)C1=O)Nc1ccc(Cl)cc1 (stereo not given)
[4]
  EC50: > 260 µM (inactive)

## Cc1ccc(OCC(=O)N/N=C/c2cn(Cc3ccccc3)c3ccccc23)cc1
[13]
  EC50: 5.86 µM (active)
[14]
  EC50: 13.1 µM (active)
[15]
  EC50: 9.88 µM (active)

## CCc1nnc(N/N=C/c2ccc(N3CCC(C)CC3)c([N+](=O)[O-])c2)n1N
[5]
  IC50: 20 µM (active)

## CC1C/C(=N/NC(=O)c2cccc(F)c2)c2ccc(O)cc2C1 (stereo not given)
[5]
  IC50: 34.6 µM (active)

## COc1ccc(/C=N/Nc2ccccn2)c(OC)c1OC
[3]
  AC50: 0.484 µM (active)

## COc1ccc(CCN2/C(=N/C(=O)CCC(=O)O)SC3CS(=O)(=O)CC32)cc1 (stereo not given)
[2]
  AC50: 39.8 µM (inconclusive)

## CCOC(=O)NC(=O)/C(C#N)=N/Nc1c(F)cccc1F
[4]
  EC50: > 260 µM (inactive)

## C/C(=N\NC(=O)c1cccc(N2CCCC2=O)c1)c1ccc(N)cc1
[3]
  AC50: 1.61 µM (active)

— ChEMBL document CHEMBL1201862, “PubChem BioAssay data set” (2004)
